In patent US20200341000A1, “METHOD OF SCREENING COMPOUNDS FOR TREATING CNS DISORDERS” (SAGE THERAPEUTICS, INC., priority 2017, published 2020):
Like-named read-outs stand apart in the source and are kept apart here.

How the values were obtained:
α1β2γ2 GABAA receptors = molecular target: T1, α1β2γ2 GABAA receptors (Homo sapiens, UniProt P14867+P18507+P47870); assay: Whole-cell patch clamp, potentiation of GABA EC20 currents at recombinant synaptic-type receptors (LTK cells); type: cell-based; conditions: n = 3
T1 construct: expressed in transfected cells
Experimental: Cellular electrophysiology was used to measure the pharmacological properties of ALLO, ganaxolone and SGE-516 in heterologous cell systems. Compounds were tested for their ability to affect GABA mediated currents at a submaximal agonist dose (GABA EC20=2 μM).
LTK cells were stably transfected with the α1β2γ2 subunits of the GABA receptor and CHO cells are transiently transfected with the α4β3γ subunits via the Lipofecatamine method. Cells were passaged at a confluence of about 50-80% and then seeded onto 35 mm sterile culture dishes containing 2 ml culture complete medium without antibiotics or antimycotics. Cells were cultivated at a density that enabled the recording of single cells without visible connections to other cells.
Whole-cell currents were measured with HEKA EPC-10 amplifiers using PatchMaster software. Bath solution for all experiments contained (in mM): NaCl 137, KCl 4, CaCl2 1.8, MgCl2 1, HEPES 10, D-Glucose 10, pH 7.4 with NaOH. Intracellular (pipette) solution contained (in mM): KCl 130, MgCl2 1, Mg-ATP 5, HEPES 10, EGTA 5, pH 7.2 with KOH. During experiments, cells and solutions were maintained at room temperature (19° C.-30° C.). For manual patchclamp recordings, cell culture dishes were placed on the dish holder of the microscope and continuously perfused (1 ml/min) with bath solution. After formation of a Gigaohm seal between the patch electrode and the cell (pipette resistance range: 2.5 MΩ-6.0MΩ; seal resistance range: >1 GΩ) the cell membrane across the pipette tip was ruptured to assure electrical access to the cell interior (whole-cell patch configuration).
Cells were voltage-clamped at a holding potential of −80 mV. GABAA receptors were activated by 2 μM GABA and compounds were sequentially applied at increasing concentrations for 30 s prior to a 2 s application of GABA. GABA and compounds were applied to cells via the Dynaflow perfusion system (Cellectricon, Sweden). Test compounds were dissolved in DMSO to form 10 mM stock solution and serially diluted to 0.01, 0.1, 1, and 10 μM in bath solution. […] All concentrations of test compound were tested on each cell. The relative percentage potentiation was defined as the peak amplitude in response to GABA EC20 in the presence of test compound divided by the peak amplitude in response to GABA EC20 alone, multiplied by 100.
ALLO and ganaxolone are known PAMs of both synaptic and extrasynaptic GABAAR-mediated currents. […] The α1β2γ2 or α4β3δ subunit combinations were chosen as representatives of typical synaptic and extrasynaptic GABAA receptors respectively.

[1] = system: sIPSCs in DGGCs (mutant mice); assay: Decay time of sIPSCs in DGGCs of mutant mice; type: cell-based; conditions: 100 nM
Experimental: The ability of 100 nM ALLO to modulate the decay time of sIPSCs was compared in DGGCs from WT and S940A mice as detailed in FIG. 2.

[2] = system: GT1-7 cells (co-express mPRα and GABAARs), β3 S408/9 phosphorylation; assay: Immunoblot of β3 S408/9 phosphorylation in GT1-7 cells; type: cell-based; conditions: 100 nM, 15 min; n=6
Experimental: GT1-7 cells that co-express mPRα and GABAARs were used to measure the level of phosphorylation at S408/9 position of β3 subunit. Quantitative PCR analysis indicated the enrichment of the mPRα mRNA in GT1-7 cells (FIG. 15A upper, figure taken from Thomas and Pang 2012). Expression of mPRα was confirmed using western blotting. 10 and 15 μg of SDS-soluble extracts from GT1-7 cells were immunoblotted with an mPRα specific antibody (FIG. 15A lower).
GT1-7 cells were treated with 100 nM AllO or P4 for 15 min and immunoblotted with antibodies specifically recognizing β3, actin, and […] β3 subunit (pS408/9). The ratio of pS408/9 β3 subunit immunoreactivity were then normalized to levels seen in vehicle treated to controls, n=6.

[3] = system: GABA-evoked currents in GT1-7 cells; assay: Patch-clamp of GABA-induced currents in GT1-7 cells, compound in the pipette electrolyte; type: cell-based; conditions: 100 nM in electrolyte, GABA EC20, 20 min time course
Experimental: Patch-clamp recordings were made from GT1-7 cells. The magnitude of the GABA-induced currents (IGABA) at EC20 agonists concentration were then measured, in the presence of control electrolyte or that supplemented with 100 nM ALLO, or 100 nM ORG OD 02-0 over a time course of 20 min.

[4] = system: sIPSCs in dentate gyms granule cells (DGGCs); assay: sIPSCs in DGGCs after 15 min exposure and >30 min wash; type: cell-based, mice
Experimental: For tonic current measurements, an all-points histogram was plotted for a 10 s period before and during 100 μM picrotoxin application, once the response reached a plateau level. Recordings with unstable baselines were discarded. Fitting the histogram with a Gaussian distribution gave the mean baseline current amplitude and the difference between the amplitudes before and during picrotoxin was considered to be the tonic current. The negative section of the all-points histogram which corresponds to the inward IPSCs was not fitted with a Gaussian distribution (Kretschmannova et al., 2013; Nusser and Mody, 2002). Series resistance and whole-cell capacitance were continually monitored and compensated throughout the course of the experiment. Recordings were eliminated from data analysis if series resistance increased by >20%. Spontaneous inhibitory post-synaptic currents (sIPSCs) were analyzed using the mini-analysis software (version 5.6.4; Synaptosoft, Decatur, Ga.). Minimum threshold detection was set to 3 times the value of baseline noise signal. […] Only recordings with a minimum of 200 events fitting these criteria were analyzed. sIPSCs amplitude, and frequency from each experimental condition was pooled and expressed as mean±SEM. To measure sIPSC decay, 100 consecutive events were averaged and the decay was fitted to a double exponential and the weighted decay constant (tw) was determined. […]

[5] = system: phosphorylation of S443 (α4) and S408/9 (β3); assay: Phosphorylation of GABAAR subunits in brain after IP injection; type: in vivo, mice; conditions: 5 mg/kg IP, 30 min after treatment
Experimental: C57/B16 mice injected with SGE-516 (5 mg/kg IP), or vehicle. 30 min after the treatment mice were sacrificed by microwave irradiation. SDS-soluble hippocampal extracts were then immunoblotted with pS443, α4, pS408/9, or β3 subunit antibodies.

[6] = system: tonic current in DGGCs (β3 S408/9A mutant); assay: Sustained effect on tonic current in DGGCs from S408/9A mice; type: cell-based; conditions: 100 nM, slices from S408/9A mice
[7] = relative percentage potentiation of GABA EC20 peak current

T1 sequence (P14867 28-456): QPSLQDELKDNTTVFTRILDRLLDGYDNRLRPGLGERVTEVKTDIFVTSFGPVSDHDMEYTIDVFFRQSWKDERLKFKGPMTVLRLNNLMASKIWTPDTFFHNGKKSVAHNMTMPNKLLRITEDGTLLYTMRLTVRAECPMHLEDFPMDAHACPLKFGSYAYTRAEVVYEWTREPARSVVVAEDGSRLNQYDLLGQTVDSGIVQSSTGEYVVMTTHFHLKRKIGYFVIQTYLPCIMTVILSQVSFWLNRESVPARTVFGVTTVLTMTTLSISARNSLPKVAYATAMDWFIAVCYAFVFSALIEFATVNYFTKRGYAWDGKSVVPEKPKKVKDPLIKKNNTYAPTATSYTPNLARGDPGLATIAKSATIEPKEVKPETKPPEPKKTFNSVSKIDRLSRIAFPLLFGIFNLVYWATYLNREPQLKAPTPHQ
T1 sequence (P47870 25-512 limits assumed): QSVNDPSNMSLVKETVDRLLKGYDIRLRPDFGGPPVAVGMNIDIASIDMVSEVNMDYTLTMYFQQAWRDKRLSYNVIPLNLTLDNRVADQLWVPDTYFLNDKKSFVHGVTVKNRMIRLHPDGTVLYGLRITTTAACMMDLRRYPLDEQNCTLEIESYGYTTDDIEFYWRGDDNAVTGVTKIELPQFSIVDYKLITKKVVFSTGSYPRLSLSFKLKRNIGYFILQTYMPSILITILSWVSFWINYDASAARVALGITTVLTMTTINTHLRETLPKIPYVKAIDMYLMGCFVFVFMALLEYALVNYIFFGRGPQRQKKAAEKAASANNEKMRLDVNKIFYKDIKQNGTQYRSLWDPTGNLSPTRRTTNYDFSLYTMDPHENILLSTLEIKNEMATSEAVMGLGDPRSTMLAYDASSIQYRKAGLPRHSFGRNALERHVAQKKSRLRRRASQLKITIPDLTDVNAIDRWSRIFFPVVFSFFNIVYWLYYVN
T1 sequence (P18507 40-475): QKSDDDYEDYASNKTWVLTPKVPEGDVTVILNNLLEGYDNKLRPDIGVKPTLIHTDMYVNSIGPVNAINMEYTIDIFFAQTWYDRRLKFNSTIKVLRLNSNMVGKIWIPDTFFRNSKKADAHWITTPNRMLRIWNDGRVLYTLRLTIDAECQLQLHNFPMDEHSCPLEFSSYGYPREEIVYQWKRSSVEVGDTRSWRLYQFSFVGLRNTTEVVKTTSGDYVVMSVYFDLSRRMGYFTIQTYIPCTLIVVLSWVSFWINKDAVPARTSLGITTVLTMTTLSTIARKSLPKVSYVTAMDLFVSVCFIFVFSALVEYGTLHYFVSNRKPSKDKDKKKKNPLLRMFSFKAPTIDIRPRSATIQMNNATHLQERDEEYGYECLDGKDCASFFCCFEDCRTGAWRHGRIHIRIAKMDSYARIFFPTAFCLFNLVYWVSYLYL

CC(=O)[C@H]1CC[C@H]2[C@@H]3CC[C@H]4C[C@H](O)CC[C@]4(C)[C@H]3CC[C@]12C [ALLO, Allopregnanolone]
EC50 (α1β2γ2 GABAA receptors; EC50, potentiation of GABA current, α1β2γ2, GABA EC20 (2 μM)): 115 nM | Emax (α1β2γ2 GABAA receptors; LTK, relative percentage potentiation of GABA EC20 peak current, read-out: Emax ± S.E.M., α1β2γ2): 229% | Emax ± S.E.M., α1β2γ2 (α1β2γ2 GABAA receptors; [7]): 229 ± 19% | decay time of sIPSCs [1]: did not increase | S408/9 phosphorylation (pS408/9/β3) in GT1-7 cells [2]: increase | GABA-evoked currents (IGABA) over time [3]: sustained increases

C[C@@]1(O)CC[C@H]2[C@H](CC[C@@H]3[C@@H]2CC[C@]2(C)[C@@H](C(=O)Cn4nccn4)CC[C@@H]32)C1 [SGE-516]
pEC50 ± S.E.M., α1β2γ2 (α1β2γ2 GABAA receptors; GABA EC20 (2 μM)): 7.2 ± 0.3 | EC50 (α1β2γ2 GABAA receptors; GABA EC20 (2 μM), read-out: EC50, potentiation of GABA current, α1β2γ2): 61 nM | Emax ± S.E.M., α1β2γ2 (α1β2γ2 GABAA receptors; [7]): 219% | enhancement of sIPSC amplitude with GFX ([4]; 100 nM SGE-516 plus GFX): significantly reduced | sIPSC amplitude after exposure and wash ([4]; 100 nM, 15 min, washed >30 min): significantly enhanced | phosphorylation of S443 and S408/9 in the brains [5]: increased | tonic current in DGGCs after incubation and extensive washout [6]: did not modify
